Data reported in patent publication US7579448B2, “Purification of microbial cell fermentation homogenates” (Genentech, Inc., priority 2003, dated 2009).

Key:
[1] = Ethacridine lactate solubility at increasing NaCl concentrations; type: physicochemical
Protocol: The samples were incubated for three hours at room temperature before the concentration of soluble ethacridine lactate was determined. The open keys symbolize the 1.2% ethacridine lactate solution and the closed keys the 0.6% solution. The solid line is the 0.6% ethacridine lactate solution at pH 6.0, the broken line is the 1.2% ethacridine lactate solution at pH 6, the dotted line is the 0.6% ethacridine lactate solution at pH 9, and the broken line with dots is the 1.2% ethacridine lactate solution at pH 9.
Two ethacridine lactate solutions, i.e., 0.6 and 1.2%, were studied. Each solution was divided into two aliquots and pH adjusted to 6.0 and 9.0, respectively. To obtain a slight buffer capacity in the system, the ethacridine lactate was dissolved in 10 mM Tris-HCl buffer. Each ethacridine lactate solution was exposed to increasing amounts of NaCl, i.e., 0, 50, 100, 150, 200, 300, and 600 mM. The samples were incubated for 3 hours, then centrifuged for 20 minutes at 12000 g in a microfuge (SORVALL MC12V™, DuPont, Wilmington, Del., USA). The supernatants were assayed for ethacridine lactate by measuring the absorption at 270 nm. The spectrophotometer used was a HP8453 UV-VIS™ from Hewlett Packard (Wilmington, Del.), now Aligent Technologies (Palo Alto, Calif.) and known as the AGILENT 8453 UV-VIS™ spectrophotometer. A standard curve was derived from a solution with known ethacridine lactate concentration.

[2] = Conductivity study: NaCl added to anti-CD18 homogenate with 0.6% ethacridine lactate; type: physicochemical; settings: 100 mM NaCl, anti-CD18 homogenate diluted 4-fold
Protocol: Various concentrations of NaCl were added to anti-CD18 homogenate to evaluate the effect of conductivity on protein precipitation. The NaCl concentrations studied were 0, 50, 100, 150, 200, and 400 mM. A reference series without ethacridine lactate was also performed to determine if any protein was precipitated due to the high salt concentration. The pH in this salt spike study was 8.5 and the anti-CD18 homogenate was diluted 4-fold. The ethacridine lactate concentration in the samples was 0.6% and 0% for the reference experiments.

- solubility of ethacridine lactate ([1]; pH 6, 0.6 and 1.2% solutions, 50 mM NaCl, 3 hours at room temperature): soluble
- solubility of ethacridine lactate ([1]; pH 6, 0.6 and 1.2% solutions, 100 mM NaCl, 3 hours at room temperature): nearly fully precipitated
Compound: CC(O)C(=O)O.CCOc1ccc2nc3cc(N)ccc3c(N)c2c1 [ethacridine lactate, 6,9-diamino-2-ethoxyacridine lactate]
- solubility of ethacridine lactate ([1]; pH 9, 0.6% solution compared with 1.2% solution, increasing NaCl): precipitated at lower salt concentration than the more concentrated ethacridine lactate solution
- precipitation of ethacridine lactate in the extraction system [2]: precipitation of ethacridine lactate was observed
